Experimental data from patent publication US10450549B2, “Aryloxyphenoxypropionate tolerance in turfrgass species and use of AAD1 as a selectable marker” (Dow AgroSciences, LLC, priority 2004, dated 2019).

Assays:
Format in all cases: in vivo, Arabidopsis thaliana
Wildtype Arabidopsis = experiment: T1 Arabidopsis spray test, % visual injury 2 WAT: wildtype control; conditions: for % Injury Ave / % Injury Range / individuals with 20-40% injury / individuals with <20% injury / individuals with >40% injury: Wildtype, 2 WAT; for GR99 for Arabidopsis: postemergence spray
From the text: (§1) Random individual T1 plants selected for glufosinate resistance above were confirmed for expression of the PAT protein using a PAT ELISA kit (Part no. 7000045, Strategic Diagnostics, Inc., Newark, Del.) to non-destructively confirm fidelity of selection process (manufacturer's protocol). Plants were then randomly assigned to various rates of phenoxy herbicides (dichlorprop or 2,4-D). […] Elevated rates were applied in subsequent trials (50, 200, 800, or 3200 g ae/ha).
(§2) All auxin herbicide applications were made using the DeVilbiss sprayer as described above to apply 703 L/ha spray volume (0.4 ml solution/3-inch pot) or applied by track sprayer in a 187 L/ha spray volume. […] Dichlorprop used was technical grade (Sigma, St. Louis, Mo.) dissolved in DMSO and diluted in water (<1% DMSO final concentration). As herbicide rates increased beyond 800 g ae/ha, the pH of the spray solution became exceedingly acidic, burning the leaves of young, tender Arabidopsis plants and complicating evaluation of the primary effects of the herbicides. It became standard practice to apply these high rates of phenoxy herbicides in 200 mM Tris buffer (pH 9.0) to a final pH of ˜7-8.
(§3) Although Arabidopsis, being a dicot, is not an optimal system for testing ACCase-inhibiting AOPP grass herbicides, AAD1 (v3)-transformed T1 plants were subjected to elevated rates (400-1600 g ae/ha) of RS-haloxyfop acid (internally synthesized) that do cause growth abnormalities and death of wildtype Arabidopsis using the DeVilbiss sprayer as described above. Injury ratings were taken 7 and 14 days after treatment. Likewise, T1 individuals were treated with the pyridyloxyacetate auxin herbicide, fluroxypyr.
(§4) Table 16. […] Response is presented in terms of % visual injury 2 WAT. […] Since each T1 is an independent transformation event, one can expect significant variation of individual T1 responses within a given rate. An arithmetic mean and standard deviation is presented for each treatment. The range in individual response is also indicated in the last column for each rate and transformation. PAT/Cry1F-transformed Arabidopsis served as an auxin-sensitive transformed control. Wildtype Arabidopsis is untransformed.
(§5) Table 17. T1 Arabidopsis response to a range of dichlroprop rates applied postemergence. Response is presented in terms of % visual injury 2 WAT. […] Since each T1 is an independent transformation event, one can expect significant variation of individual T1 responses within a given rate. An arithmetic mean and standard deviation is presented for each treatment. The range in individual response is also indicated in the last column for each rate and transformation. PAT/Cry1F-transformed Arabidopsis served as an auxin-sensitive transformed control. Wildtype Arabidopsis is untransformed.
as §5, with “18.” for “17.”, “haloxyfop” for “dichlroprop”, “postemergence at artificially high rates attempting to show tolerance of the dicot Arabidopsis to the graminicide.” for “postemergence.”

[1] = system: PAT/Cry1F-transformed Arabidopsis; experiment: T1 Arabidopsis spray test, % visual injury 2 WAT: PAT/Cry1F transformed control
From the text: as §1, §2, §3, §4, §5
as §5, with “18.” for “17.”, “haloxyfop” for “dichlroprop”, “postemergence at artificially high rates attempting to show tolerance of the dicot Arabidopsis to the graminicide.” for “postemergence.”

wt ARBTH = experiment: In vitro plate test of herbicide cross resistance: wild-type Arabidopsis; conditions: 7 days
Protocol: The ability of AAD1 (v3) to provide resistance to other aryloxyphenoxyalkanoate herbicides in transgenic Arabidopsis was determined using a modified in vitro plate assay. Seeds from wild-type Arabidopsis thaliana as well as Arabidopsis thaliana containing the plant optimized AAD1 (v3) gene (T4 homozygous plants id=PAAD1.315.064) were sterilized by agitating for 10 min in a 50% bleach solution. These seeds were then rinsed four times with sterile water to remove the bleach.
Dose response assays utilized a nutrient media (see below) supplemented with various rates of test compounds. The test compounds were added to the heated media (55° C.) as concentrated solutions in DMSO. Control wells had the appropriate amount of DMSO without any additional compound. The final concentration of DMSO never exceeded 1% (v/v). After thorough mixing, a 6 mL aliquot of the warm media containing the appropriate concentration of compound was added to each well of a 6-well, flat bottom, polystyrene tissue culture tray (Falcon 353046, Becton Dickson and Company, Franklin Lakes, N.J.). After the media solidified, approximately 20 to 30 Arabidopsis seeds were applied on top of the solidified media and the remaining 2 mL of media was poured over the seeds. The plates were lightly agitated to disperse the seeds, covered and allowed to cool until the media had completely solidified. The plates were incubated for 7 days at 25° C. under continual fluorescent lighting (75 μE m^−2 s^−1). Nutrient Media Composition was as described in Example 2.2 and in Somerville and Orgen (1982).
Assessment of Growth Reduction. The apical portion of the Arabidopsis plants grown in the treated media was assessed visually relative to the apical portion of the plants grown in the media containing only DMSO. Values were recorded as % growth reduction. Assessments of root growth inhibition of the Arabidopsis plants grown in the treated media were achieved by carefully extracting the plants from the media and measuring the length of the root. These root lengths were then compared to the root length of the control plants to determine a % growth reduction. A minimum of five plants were assessed for each treatment. The values recorded are an average of all the plants assessed. The calculated concentration to reach 50% inhibition effect (I50) were determined for both root and shoots of wildtype and AAD1-transformed Arabidopsis. The ratios of resistant to sensitive biotypes are included in Table 19. A ratio>2 for both root and shoot measurements generally signifies significant resistance. The higher the ratio, the greater the level of resistance. […] The broad phenoxy auxin resistance is the first reported in planta.

[2] = PAT/Cry1F (transformed control), 50 g ae/ha
[3] = PAT/Cry1F (transformed control), 200 g ae/ha
[4] = PAT/Cry1F (transformed control), 800 g ae/ha

CC(Oc1ccc(Cl)cc1Cl)C(=O)O (racemic) [(R,S)-dichlorprop, 2,4-dichlorophenoxypropionic acid]
% Injury Ave (Wildtype Arabidopsis; 12.5 g ae/ha): 13.3%
% Injury Range (Wildtype Arabidopsis; 12.5 g ae/ha): 10-15%
individuals with 20-40% injury (Wildtype Arabidopsis; 12.5 g ae/ha): 0
individuals with <20% injury (Wildtype Arabidopsis; 12.5 g ae/ha): 3
individuals with >40% injury (Wildtype Arabidopsis; 12.5 g ae/ha): 0
% Injury Ave (Wildtype Arabidopsis; 50 g ae/ha): 53.3%
% Injury Range (Wildtype Arabidopsis; 50 g ae/ha): 50-60%
individuals with 20-40% injury (Wildtype Arabidopsis; 50 g ae/ha): 0
individuals with <20% injury (Wildtype Arabidopsis; 50 g ae/ha): 0
individuals with >40% injury (Wildtype Arabidopsis; 50 g ae/ha): 3
% Injury Ave (Wildtype Arabidopsis; 200 g ae/ha): 95.0%
% Injury Range (Wildtype Arabidopsis; 200 g ae/ha): 90-100%
individuals with 20-40% injury (Wildtype Arabidopsis; 200 g ae/ha): 0
individuals with <20% injury (Wildtype Arabidopsis; 200 g ae/ha): 0
individuals with >40% injury (Wildtype Arabidopsis; 200 g ae/ha): 3
% Injury Ave (Wildtype Arabidopsis; 800 g ae/ha): 100.0%
% Injury Range (Wildtype Arabidopsis; 800 g ae/ha): 100%
individuals with 20-40% injury (Wildtype Arabidopsis; 800 g ae/ha): 0
individuals with <20% injury (Wildtype Arabidopsis; 800 g ae/ha): 0
individuals with >40% injury (Wildtype Arabidopsis; 800 g ae/ha): 3
GR99 for Arabidopsis (Wildtype Arabidopsis): ~200 g ae/ha
% Injury Ave ([1]; PAT/Cry1F, 12.5 g ae/ha): 38.1%
% Injury Range ([1]; PAT/Cry1F, 12.5 g ae/ha): 20-95%
individuals with 20-40% injury ([1]; PAT/Cry1F, 12.5 g ae/ha): 6
individuals with <20% injury ([1]; PAT/Cry1F, 12.5 g ae/ha): 0
individuals with >40% injury ([1]; PAT/Cry1F, 12.5 g ae/ha): 2
% Injury Ave ([1]; PAT/Cry1F, 50 g ae/ha): 80.0%
% Injury Range ([1]; PAT/Cry1F, 50 g ae/ha): 50-100%
individuals with 20-40% injury ([1]; PAT/Cry1F, 50 g ae/ha): 0
individuals with <20% injury ([1]; PAT/Cry1F, 50 g ae/ha): 0
individuals with >40% injury ([1]; PAT/Cry1F, 50 g ae/ha): 8
% Injury Ave ([1]; PAT/Cry1F, 200 g ae/ha): 98.3%
% Injury Range ([1]; PAT/Cry1F, 200 g ae/ha): 95-100%
individuals with 20-40% injury ([1]; PAT/Cry1F, 200 g ae/ha): 0
individuals with <20% injury ([1]; PAT/Cry1F, 200 g ae/ha): 0
individuals with >40% injury ([1]; PAT/Cry1F, 200 g ae/ha): 8
% Injury Ave ([1]; PAT/Cry1F, 800 g ae/ha): 100.0%
% Injury Range ([1]; PAT/Cry1F, 800 g ae/ha): 100%
individuals with 20-40% injury ([1]; PAT/Cry1F, 800 g ae/ha): 0
individuals with <20% injury ([1]; PAT/Cry1F, 800 g ae/ha): 0
individuals with >40% injury ([1]; PAT/Cry1F, 800 g ae/ha): 8
wt ARBTH root 150 (wt ARBTH): 0.01 ppm
wt ARBTH shoot 150 (wt ARBTH): 2 ppm

O=C(O)COc1ccc(Cl)cc1Cl [2,4-D, 2,4-dichlorophenoxyacetic acid]
% Injury Ave (Wildtype Arabidopsis; 50 g ae/ha): 90.0%
individuals with 20-40% injury (Wildtype Arabidopsis; 50 g ae/ha): 0
individuals with <20% injury (Wildtype Arabidopsis; 50 g ae/ha): 0
individuals with >40% injury (Wildtype Arabidopsis; 50 g ae/ha): 15
% Injury Ave (Wildtype Arabidopsis; 200 g ae/ha): 95.1%
individuals with 20-40% injury (Wildtype Arabidopsis; 200 g ae/ha): 0
individuals with <20% injury (Wildtype Arabidopsis; 200 g ae/ha): 0
individuals with >40% injury (Wildtype Arabidopsis; 200 g ae/ha): 15
% Injury Ave (Wildtype Arabidopsis; 800 g ae/ha): 100.0%
individuals with 20-40% injury (Wildtype Arabidopsis; 800 g ae/ha): 0
individuals with <20% injury (Wildtype Arabidopsis; 800 g ae/ha): 0
individuals with >40% injury (Wildtype Arabidopsis; 800 g ae/ha): 15
GR99 for Arabidopsis (Wildtype Arabidopsis): about 50 g ae/ha
% Injury Ave [1, 2]: 90.7%
individuals with 20-40% injury [1, 2]: 0
individuals with <20% injury [1, 2]: 0
individuals with >40% injury [1, 2]: 15
% Injury Ave [1, 3]: 97.2%
individuals with 20-40% injury [1, 3]: 0
individuals with <20% injury [1, 3]: 0
individuals with >40% injury [1, 3]: 15
% Injury Ave [1, 4]: 100.0%
individuals with 20-40% injury [1, 4]: 0
individuals with <20% injury [1, 4]: 0
individuals with >40% injury [1, 4]: 15
wt ARBTH root 150 (wt ARBTH): <0.01 ppm
wt ARBTH shoot 150 (wt ARBTH): 0.2 ppm
